Usually mortality stands for the percentage killed. Usually LD50 stands for the dose at which mortality reaches 50%. Lower therefore signals a more toxic substance.

Structures are written as SMILES.

This is an account of results in US4338451A, “5-Hydroxymethyl oxazolidinones” (Delalande S.A., priority 1977, dated 1982).

The nature of series [1]: Acute toxicity in mice. The following applies: mouse, in vivo, po.
For series [2], the system named is pontogeniculo-occipital points (P.G.O.) caused by an intravenous injection (0.5 mg/kg) of reserpine. Nature of the series: Test C: reduction in the density of pontogeniculo-occipital points (P.G.O.) caused by reserpine in cats. It counts as in vivo. The following applies: Felis catus, ip, reserpine 0.5 mg/kg intravenous, read-out: Test C ED 50. Here is the method:
Reduction in the density of pontogeniculo-occipital points (P.G.O.) caused by an intravenous injection (0.5 mg/kg) of reserpine given to cats, following the protocol described by A. COSTON and C. GOURET in J. Pharmacol. (Paris) (1976), 7, 409.

Series [3] relates to ptosis observed one hour after an intravenous injection (2 mg/kg) of reserpine. Nature of the series: Test B: antagonism of the ptosis caused by reserpine in mice. It counts as in vivo. The following applies: Mus musculus, po, 1 h, p.o., reserpine 2 mg/kg intravenous, read-out: Test B ED 50. How it is done: Antagonism with respect to the ptosis observed one hour after an intravenous injection (2 mg/kg) of reserpine given to mice, following the protocol described by C.

Series [4] concerns generalized trembling caused by an interperitoneal injection (200 mg/kg) of dl-5-hydroxytryptophane. Nature of the series: Test A: potentiation in mice of generalized trembling caused by dl-5-hydroxytryptophane. The conditions noted are these: Mus musculus, po, dl-5-hydroxytryptophane 200 mg/kg intraperitoneal, read-out: Test A ED 50. It counts as in vivo. How it is done:
Potentiation in mice of generalized trembling caused by an interperitoneal injection (200 mg/kg) of dl-5-hydroxytryptophane, following the protocol described by C. GOURET and G. RAYNAUD in J. Pharmacol. (Paris), (1974) 5, 231.

In series [1] (1000 mg/kg), `O=C1OC(CO)CN1c1ccc(OCc2cccc(Br)c2)cc1` (centres unmarked) [760 557] registered a mortality of 0%. Moreover, the results for the ED50 in series [2], in series [3] and in series [4] were 110 mg/kg, 3.3 mg/kg and 7.3 mg/kg, respectively.
As for `CC(=O)COc1ccc(N2CC(CO)OC2=O)cc1` (centres unmarked) [760 652, 3-(p-acetylmethyloxy) 5-hydroxymethyl 2-oxazolidinone], the mortality in series [1] (mice, dose administered 1000 mg/kg/p.o.) was determined as 0%.
The molecule `N#CCCOc1ccc(N2CC(CO)OC2=O)cc1` (centres unmarked) [770 131, 3-(2-p-cyanoethoxyphenyl) 5-hydroxymethyl 2-oxazolidinone] gave a mortality in series [1] (1000 mg/kg) of 0%. Also, the figures for the ED50 in series [2], in series [3] and in series [4] were 5.5 mg/kg, 3 mg/kg and 2.5 mg/kg, respectively.
The like results for `N#Cc1cccc(COc2ccc(N3CC(CO)OC3=O)cc2)c1` (centres unmarked) [770 222] were, in that order, 0%, 5.2 mg/kg, 1.2 mg/kg and 2.8 mg/kg.
For `O=C1OC(CO)CN1c1ccc(OCc2cccc([N+](=O)[O-])c2)cc1` (centres unmarked) [770 234] the same measures were 0%, 9 mg/kg, 0.7 mg/kg and 1.5 mg/kg.
For the molecule `O=C1OC(CO)CN1c1ccc(OCc2cccs2)cc1` (centres unmarked) [770 673], the figures for the ED50 in series [2], in series [3] and in series [4] were 8 mg/kg, 35 mg/kg and 16 mg/kg, respectively.
As for `O=C1OC(CO)CN1c1ccc(OCc2ccc(F)c([N+](=O)[O-])c2)cc1` (centres unmarked) [770 955], the mortality in series [1] (2000 mg/kg) worked out at 17%. The ED50 in series [3] amounted to 7 mg/kg; in series [4] it was 13 mg/kg.
Molecule `CC(C)CCOc1ccc(N2CC(CO)OC2=O)cc1` (centres unmarked) [771 082] yielded an LD50 in series [1] greater than 2000 mg/kg. Further, the ED50 in series [3] was 0.7 mg/kg; in series [4] it was 1.3 mg/kg.
Turning to `O=C1OC(CO)CN1c1ccc(OCCC2CCCC2)cc1` (centres unmarked) [771 245], the LD50 in series [1] was greater than 2000 mg/kg. For the same molecule, the ED50 in series [3] is 2 mg/kg; in series [4] it was 1.5 mg/kg.
As to `O=C1OC(CO)CN1c1ccc(OCC2CCOCC2)cc1` (centres unmarked) [771 301], in series [1], the LD50 was greater than 2000 mg/kg. Further, the ED50 worked out at 3 mg/kg in series [3] and 1.9 mg/kg in series [4].
As to `Cc1cccc(N2CC(CO)OC2=O)c1` (centres unmarked) [TOLOXATONE, reference compound], the ED50 in series [2] was 28 mg/kg; in series [3], 50 mg/kg; in series [4] it was 60 mg/kg.
